# From US20240002344A1, “COMPOUNDS, COMPOSITIONS AND METHODS FOR HISTONE LYSINE DEMETHYLASE INHIBITION” (FibroGen, Inc., priority 2020, published 2024)
# How the values were obtained:
# [1] = biological target: T1, recombinant human KDM5B (Homo sapiens, UniProt Q9UGL1); assay: 14CO2 capture enzymatic assay (decarboxylation of [1-14C] αKG), KDM5B; format: biochemical; conditions: 10 μM [1-14C] αKG, 90 μM non-labeled αKG, 50 μM peptide substrate, 37° C., 1 hour, final 1% DMSO
# T1 sequence (Q9UGL1 374-755 limits assumed): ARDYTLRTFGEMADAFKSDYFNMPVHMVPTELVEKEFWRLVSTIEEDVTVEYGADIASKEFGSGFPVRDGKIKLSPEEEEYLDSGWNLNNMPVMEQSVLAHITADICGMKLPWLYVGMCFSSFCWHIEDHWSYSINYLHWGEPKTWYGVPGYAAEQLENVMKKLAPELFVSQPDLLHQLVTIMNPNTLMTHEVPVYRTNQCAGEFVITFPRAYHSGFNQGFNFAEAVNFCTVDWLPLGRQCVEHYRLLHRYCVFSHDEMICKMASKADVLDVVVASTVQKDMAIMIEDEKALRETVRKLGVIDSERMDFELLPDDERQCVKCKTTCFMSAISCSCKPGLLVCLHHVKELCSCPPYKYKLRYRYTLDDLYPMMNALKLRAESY
# Experimental: (§1) Enzymatic activity was determined based on the capture of ^14CO2 released by the decarboxylation of [1-^14C] αKG (Zhang et al., Anal. Biochem., 1998, vol. 271, pp. 137-142). [1-^14C]alphaketoglutarate (αKG) was from Perkin-Elmer, H3K4me3 and H3K9me3 peptides were from Mimotopes. All other reagents were from Sigma. Reaction mixtures included the following components: Fe(SO4), [1-^14C] αKG, non-labeled αKG, ascorbate, peptide-substrate (H3K4me3: H-ARTK(me3)QTARKSTGGKAPRKQLA-OH. H3K9me3: H-ARTKQTARK(me3)STGGKAPRKQLA-OH), NaCl, Tween-20 and catalase in 25 mM HEPES buffer, pH 7.4. The enzymatic reactions were initiated by addition of recombinant human KDM5B or KDM4A enzyme (truncated enzyme produced in house by method and using sequence disclosed in Ng et al, Nature 448:87-91, 2007). The reactions were performed in 96-well microtiter plates (20 μL total assay volume) (Greiner #650201). ^14CO2 was captured on a glass fiber filter paper (Cat. No. IH-201-A, Inotech Biosystems International) soaked with saturated Ba(OH)2 that was laid on top of the 96-well plate. A microtiter plate sealer film (Thermal Seal cat #T7961100) was applied to the filter paper. The plate and filter paper were sandwiched between two custom made aluminum plates (Advanced Component Manufacturing, Burlingame, CA) and transferred to a 37° C. oven and allowed to incubate for 1 hour. After incubation, the filter paper was dried in a 103° C. oven for 40-60 minutes. To determine percent turnover, aliquots of the reaction mixture were spotted onto the filter paper and the filter paper was dried again. The dry filter paper was exposed to a storage phosphor screen for 24-72 hours and the images recorded using a Typhoon FLA 7000 Imager (Amersham Biosciences, Piscataway, NJ). Integrated spot intensities corresponding to control reactions lacking the enzyme were subtracted from integration results for enzyme containing reactions and data were converted to enzyme dependent percent ^14CO2 release. All enzymatic reactions were run in duplicates.
# (§2) For IC50 determination, a 3-fold dilution series of compound was prepared and added to the reaction mixture (final 1% DMSO, v/v) prior to enzyme addition. The final reagent concentrations were: 10 μM Fe(SO4), 10 μM [1-^14C] αKG, 90 μM non-labeled αKG, 2 mM ascorbate, 50 μM peptide substrate, 75 mM NaCl, 0.01% Tween-20 and ˜2 units/μL catalase. IC50s were determined by non-linear fitting using Grafit version 7.0.
# [2] = biological target: T2, recombinant human KDM4A (Homo sapiens, UniProt O75164); assay: 14CO2 capture enzymatic assay (decarboxylation of [1-14C] αKG), KDM4A; format: biochemical; conditions: 10 μM [1-14C] αKG, 90 μM non-labeled αKG, 50 μM peptide substrate, 37° C., 1 hour, final 1% DMSO
# T2 construct: made in house
# T2 sequence (O75164 1-359 limits assumed): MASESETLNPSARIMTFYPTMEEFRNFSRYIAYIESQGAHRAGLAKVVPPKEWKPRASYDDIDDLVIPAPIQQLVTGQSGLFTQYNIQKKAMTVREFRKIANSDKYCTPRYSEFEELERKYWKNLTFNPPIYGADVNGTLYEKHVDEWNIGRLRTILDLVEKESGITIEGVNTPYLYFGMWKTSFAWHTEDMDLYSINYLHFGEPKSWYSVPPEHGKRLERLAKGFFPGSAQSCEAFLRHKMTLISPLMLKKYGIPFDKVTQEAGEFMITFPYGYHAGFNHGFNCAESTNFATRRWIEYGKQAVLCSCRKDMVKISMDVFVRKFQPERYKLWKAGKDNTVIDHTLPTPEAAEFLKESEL
# Experimental: as §1, §2
SMILES,IC50 [1],IC50 [2]
"N#Cc1ccc(C(F)(F)F)cc1-c1cc(C#N)c(O)c(C(=O)CCC(=O)O)n1 [Example 105, 4-[4-Cyano-6-(2-cyano-5-trifluoromethyl-phenyl)-3-hydroxy-pyridin-2-yl]-4-oxo-butyric acid]",420 nM,> 40000 nM
"N#Cc1cc(Oc2cccc(Cl)c2)cc(C(=O)CCC(=O)O)c1O [Example 138, 4-[5-(3-Chloro-phenoxy)-3-cyano-2-hydroxy-phenyl]-4-oxo-butyric acid]",390 nM,> 40000 nM
"Cc1cccc(C(F)(F)F)c1Cc1cc(C#N)c(O)c(C(=O)CCC(=O)O)n1 [Example 62, 4-[4-Cyano-3-hydroxy-6-(2-methyl-6-trifluoromethyl-benzyl)-pyridin-2-yl]-4-oxo-butyric acid]",470 nM,> 40000 nM
"Cc1ccc(C#N)cc1-c1cc(C#N)c(O)c(C(=O)CCC(=O)O)n1 [Example 100, 4-[4-Cyano-6-(5-cyano-2-methyl-phenyl)-3-hydroxy-pyridin-2-yl]-4-oxo-butyric acid]",430 nM,> 40000 nM
"Cc1cccc(F)c1Cc1cc(C#N)c(O)c(C(=O)CCC(=O)O)n1 [Example 148, 4-[4-Cyano-6-(2-fluoro-6-methyl-benzyl)-3-hydroxy-pyridin-2-yl]-4-oxo-butyric acid]",300 nM,4300 nM
"N#Cc1cc(Br)c(O)c(C(=O)CCC(=O)O)n1 [Example 2, 4-(4-Bromo-6-cyano-3-hydroxy-pyridin-2-yl)-4-oxo-butyric acid]",310 nM,19000 nM
"N#Cc1cc(-c2ccccc2)cc(C(=O)CCC(=O)O)c1O [Example 104, 4-(5-Cyano-4-hydroxy-biphenyl-3-yl)-4-oxo-butyric acid]",460 nM,> 40000 nM
"Cc1cc(F)cc(C)c1Cc1cc(C#N)c(O)c(C(=O)CCC(=O)O)n1 [Example 151, 4-[4-Cyano-6-(4-fluoro-2,6-dimethyl-benzyl)-3-hydroxy-pyridin-2-yl]-4-oxo-butyric acid]",500 nM,1500 nM
"N#Cc1cc(C2CCCCC2)nc(C(=O)CCC(=O)O)c1O [Example 25, 4-(4-Cyano-6-cyclohexyl-3-hydroxy-pyridin-2-yl)-4-oxo-butyric acid]",330 nM,> 40000 nM
"Cc1ccc(Oc2cc(C#N)c(O)c(C(=O)CCC(=O)O)c2)cc1 [Example 139, 4-(3-Cyano-2-hydroxy-5-p-tolyloxy-phenyl)-4-oxo-butyric acid]",560 nM,> 40000 nM
"N#Cc1cc(-c2ccc(-c3ccccc3)c3ccccc23)nc(C(=O)CCC(=O)O)c1O [Example 111, 4-[4-Cyano-3-hydroxy-6-(4-phenyl-naphthalen-1-yl)-pyridin-2-yl]-4-oxo-butyric acid]",320 nM,> 40000 nM
"N#Cc1cc(CCc2ccccc2)nc(C(=O)CCC(=O)O)c1O [Example 15, 4-(4-Cyano-3-hydroxy-6-phenethyl-pyridin-2-yl)-4-oxo-butyric acid]",390 nM,> 40000 nM
"N#Cc1ccccc1Cc1cc(C#N)c(O)c(C(=O)CCC(=O)O)n1 [Example 46, 4-[4-Cyano-6-(2-cyano-benzyl)-3-hydroxy-pyridin-2-yl]-4-oxo-butyric acid]",430 nM,13000 nM
"N#Cc1nc(Cc2ccccc2)cc(C(=O)CCC(=O)O)c1O [Example 160, 4-(6-Benzyl-2-cyano-3-hydroxy-pyridin-4-yl)-4-oxo-butyric acid]",2000 nM,> 40000 nM
"Cc1c(C#N)cccc1-c1cc(C#N)c(O)c(C(=O)CCC(=O)O)n1 [Example 98, 4-[4-Cyano-6-(3-cyano-2-methyl-phenyl)-3-hydroxy-pyridin-2-yl]-4-oxo-butyric acid]",300 nM,> 40000 nM
"N#Cc1cc(Cc2c(F)cccc2C(F)(F)F)nc(C(=O)CCC(=O)O)c1O [Example 60, 4-[6-(2-Fluoro-6-trifluoromethyl-benzyl)-4-cyano-3-hydroxy-pyridin-2-yl]-4-oxo-butyric acid]",330 nM,> 40000 nM

# Compounds with a lower IC50 [1], results first:
IC50 [1],IC50 [2],SMILES
280 nM,27000 nM,"COc1cccc(F)c1Cc1cc(C#N)c(O)c(C(=O)CCC(=O)O)n1 [Example 150, 4-[4-Cyano-6-(2-fluoro-6-methoxy-benzyl)-3-hydroxy-pyridin-2-yl]-4-oxo-butyric acid]"
270 nM,28000 nM,"N#Cc1cc(Cc2c(F)ccc(F)c2F)nc(C(=O)CCC(=O)O)c1O [Example 57, 4-[4-Cyano-3-hydroxy-6-(2,3,6-trifluoro-benzyl)-pyridin-2-yl]-4-oxo-butyric acid]"
260 nM,> 40000 nM,"N#Cc1cc(Cc2ccc(Cl)cc2Cl)nc(C(=O)CCC(=O)O)c1O [Example 64, 4-[4-Cyano-6-(2,4-dichloro-benzyl)-3-hydroxy-pyridin-2-yl]-4-oxo-butyric acid]"
250 nM,> 40000 nM,"Cc1cc(Cl)ccc1-c1cc(C#N)c(O)c(C(=O)CCC(=O)O)n1 [Example 90, 4-[6-(4-Chloro-2-methyl-phenyl)-4-cyano-3-hydroxy-pyridin-2-yl]-4-oxo-butyric acid]"
240 nM,36000 nM,"N#Cc1cc(Cc2cc(Cl)ccc2Cl)nc(C(=O)CCC(=O)O)c1O [Example 63, 4-[4-Cyano-6-(2,5-dichloro-benzyl)-3-hydroxy-pyridin-2-yl]-4-oxo-butyric acid]"
240 nM,> 40000 nM,"N#Cc1cc(-c2ccc(OC(F)(F)F)cc2)nc(C(=O)CCC(=O)O)c1O [Example 67, 4-[4-Cyano-3-hydroxy-6-(4-trifluoromethoxy-phenyl)-pyridin-2-yl]-4-oxo-butyric acid]"
230 nM,4900 nM,"Cc1cccc(C)c1Cc1cc(C#N)c(O)c(C(=O)CCC(=O)O)n1 [Example 54, 4-[4-Cyano-6-(2,6-dimethyl-benzyl)-3-hydroxy-pyridin-2-yl]-4-oxo-butyric acid]"
180 nM,14000 nM,"N#Cc1cc(Cc2cccc(Cl)c2Cl)nc(C(=O)CCC(=O)O)c1O [Example 65, 4-[4-Cyano-6-(2,3-dichloro-benzyl)-3-hydroxy-pyridin-2-yl]-4-oxo-butyric acid]"
110 nM,> 40000 nM,"Cc1ccc(-c2cc(C#N)c(O)c(C(=O)CCC(=O)O)n2)cc1 [Example 73, 4-(4-Cyano-3-hydroxy-6-p-tolyl-pyridin-2-yl)-4-oxo-butyric acid]"
110 nM,16000 nM,"N#Cc1cc(C#N)c(O)c(C(=O)CCC(=O)O)n1 [Example 3, 4-(4,6-Dicyano-3-hydroxy-pyridin-2-yl)-4-oxo-butyric acid]"
80 nM,13000 nM,"COc1cccc(Cl)c1Cc1cc(C#N)c(O)c(C(=O)CCC(=O)O)n1 [Example 125, 4-[6-(2-Chloro-6-methoxy-benzyl)-4-cyano-3-hydroxy-pyridin-2-yl]-4-oxo-butyric acid]"
70 nM,3700 nM,"N#Cc1cc(Cc2c(Cl)ccc(F)c2Cl)nc(C(=O)CCC(=O)O)c1O [Example 149, 4-[4-Cyano-6-(2,6-dichloro-3-fluoro-benzyl)-3-hydroxy-pyridin-2-yl]-4-oxo-butyric acid]"
